Entries after “also recorded” stand apart in the source; their conditions may differ.
Assays:
[1] = target: T1, VEGF binding to heparin (HS-GAG) (Homo sapiens, UniProt P15692); test: In vitro VEGF to HS-GAG binding assay (ELISA, heparin-BSA coated plate)
T1 construct: purchased Research and Development Systems
T1 sequence (P15692 27-191 isoform P15692-4): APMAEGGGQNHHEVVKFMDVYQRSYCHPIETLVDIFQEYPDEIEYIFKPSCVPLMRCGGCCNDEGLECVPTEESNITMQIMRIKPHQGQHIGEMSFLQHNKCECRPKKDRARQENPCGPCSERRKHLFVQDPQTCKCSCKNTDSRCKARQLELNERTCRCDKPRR
Text: An in vitro assay was used to assess the ability of test compounds of general formulas I and II to inhibit the interaction of VEGF with HS-GAGs. The assay was designed to for determine the concentration required for 50% inhibition (IC-50) for each specific compound. The test compounds were purchased from Life Chemicals Ltd. (Kiev, Ukraine), and the GAG used was heparin (heparin grade I-A; Sigma) conjugated to bovine serum albumin (Sigma) and diluted 1:200 in phosphate-buffered saline (PBS; pH 7.3). The heparin was added to a 96-well polystyrene ELISA plate (NUNC; 0.1 ml per well) and incubated overnight at 4° C. Following the incubation, the plate was washed thoroughly, by immersion, with de-ionized water and then with PBS (pH 7.3) containing Tween 20 (Sigma, 0.05%). The ELISA plate was then blocked with BSA (ICN, 3%, 200 μl per well) for 1 hour at room temperature. Following blocking, the plate was washed with de-ionized water, and then twice with PBS (pH 7.3) containing Tween 20. Recombinant human VEGF (Research and Development Systems) dissolved in PBS supplemented with BSA (0.1%) was added to the ELISA plate. The test compounds were dissolved in DMSO (MERCK), diluted in PBS and added to the wells at concentrations ranging from 0.01 to 200 μM to obtain a final volume 100 μl per well, and incubated for 60 minutes at room temperature with shaking. Following incubation, the plate was washed with de-ionized water and PBS (pH 7.3) containing Tween 20. Anti-human VEGF (1:2000; Research and Development Systems) diluted in PBS supplemented with BSA (1%) was added to the ELISA plate (100 per well) and incubated for 60 minutes at room temperature with shaking. Following incubation, the plate was washed with de-ionized water and then with PBS (pH 7.3) containing Tween 20. Streptavidin-HRP (1:200; Research and Development Systems Cat. No. DY998) diluted in PBS supplemented with BSA (1%) was added to the ELISA plate (100 per well) and incubated for 20 minutes at room temperature with shaking. The plate was then washed with de-ionized water and twice with PBS (pH 7.3) containing Tween 20. The peroxidase substrate chromogen tetramethyl benzidine (TMB; Dako) was added (100 μl per well) to the ELISA plate and incubated at room temperature. After 15 minutes, ELISA Stop Solution (hydrochloric acid 1N, sulfuric acid 3N) was added (100 μl per well) to stop the peroxidase catalyzed colorimetric reaction. The Optical Density (OD) of the samples was measured at 450 nm using an ELISA plate reader (Dynatech MR5000). Data were analyzed with Graphpad Prism software and IC-50 values were determined.
Percent inhibition at 30 μM concentration is shown and for selected compounds IC-50 was established.

[2] = tested on: carrageenan-induced paw edema in BALB/c mice; test: Carrageenan-induced paw edema; assay type: in vivo
Procedure: FIG. 1 is a graph showing the anti-inflammatory activity of Compounds 1-6 administered to mice intraperitoneally (i.p.) at 20 mg/kg, 1 hour before induction of paw edema (10-12 mice per group). The swelling of paws was measured 4 hours after induction, compared to controls and expressed as difference in paw thickness in mm (y-axis). The results were statistically evaluated by Student's t-test and statistical significance is indicated by one, two or three stars ([…]).
Acute edema was induced in the […] of BALB/c mice (10-12 mice/group) by injecting 0.02 ml of freshly prepared solution of 2% carrageenan (Sigma) under the plantar region of right hind paw (Tones et al., 2000). Carrageenan was injected 60 min after administration of the test compounds. The right paw received 0.02 ml of saline, which served as a control. The paw thickness was measured at 2, 4 and 24 hours after carrageenan challenge using a Mitutoyo engineer's micrometer. The difference between right and left pad was expressed as mean±SEM. Test compounds were injected intraperitoneally (i.p.) (20 mg/kg) in 0.5% Tween 80 in saline and vehicle control group received 0.5% Tween 80 in saline.
Compound 1 reduced paw edema by 33% and the reduction was statistically significant as determined by Student's t-test with […].

[3] = tested on: oxazolone-induced ear swelling in BALB/c mice; test: Delayed-type hypersensitivity (DTH), oxazolone mouse ear-swelling test; assay type: in vivo; details: for reduction of ear swelling: per os 50 mg/kg, 1 hour prior to challenge, after 48 hours; for inhibition of ear swelling (in words): DTH, FIG. 2, oral 50 mg/kg
Procedure: FIG. 2 is a graph showing the anti-inflammatory activity of Compounds 1, 2, 4, 5, 6 administered to mice orally at 50 mg/kg in a model of delayed-type hypersensitivity (DTH) (11-13 mice per group). The results for dexamethasone (10 mg/kg i.p.), a steroid positive control, are also shown. The y-axis represents difference in ear thickness in mm compared to control. The results were statistically evaluated by Student's t-test and statistical significance is indicated by one, two or three stars ([…]).
BALB/c mice (Velaz, Prague, Czech Republic; 8 week-old; 10-15 animals per group) were sensitized by topical application of a 2% oxazolone (4-ethoxymethylene-2-phenyl-2-oxazolin-5-one; Sigma, St Louis, Mo.) solution in acetone/olive oil (4:1 vol/vol) to a shaved abdomen area (50 μl) and to each paw (5 μl)(Lange-Asschenfeldt et al., 2002). Topical oxazolone administration induces immunomodulatory activity. Five days after sensitization, right ears were challenged by topical application of 10 μl of a 1% oxazolone solution, whereas left ears were treated with vehicle alone. Test compounds were administered 1 hour prior to challenge. The extent of inflammation was measured 24 hours and 48 hours after challenge, using the mouse ear-swelling test. Animals were numbered (tail marking) and weighed and the thickness of both ears was recorded with a constant-loading dial micrometer (Mitutoyo, Tokyo). The unpaired Student t-test was used for statistical analyses. Test compounds were administered per os at 50 mg/kg as a suspension with 0.5% methylcellulose. The vehicle control group received the same volume of 0.5% methylcellulose.

[4] = 20 mg/kg i.p., 60 min before carrageenan, 4 hours after induction

| inhibition at 30 µM [1] | IC50 [1] | SMILES | reduction of paw edema [2, 4] | reduction of ear swelling [3] | also measured |
| --- | --- | --- | --- | --- | --- |
| 60% |  | CSc1ccc(CC(=O)Nc2sc3c(c2-c2nc4ccccc4s2)CCN(C)C3)cc1 [Compound 3, N-[3-(2-benzothiazolyl)-4,5,6,7-tetrahydro-6-methylthieno[2,3-c]pyridin-2-yl]-2-(4-methylthiophenyl)acetamide] | 32.1% |  |  |
| 82% | 220 nM | CCN1CCc2c(sc(NC(=O)c3ccc(C#N)cc3)c2-c2nc3ccccc3s2)C1 [Compound 1, N-[3-(2-benzothiazolyl)-4,5,6,7-tetrahydro-6-ethylthieno[2,3-c]pyridin-2-yl]-4-cyanobenzamide] | 33% | 41.4% |  |
|  |  | C[C@@H]1C[C@H]2[C@@H]3CCC4=CC(=O)C=C[C@]4(C)[C@@]3(F)[C@@H](O)C[C@]2(C)[C@@]1(O)C(=O)CO [dexamethasone, reference compound] |  |  | reduction in ear swelling ([3]; dexamethasone positive control, i.p. (10 mg/kg per FIG. 2)): 46.5% |
| 70% | 1700 nM | CN1CCc2c(sc(NC(=O)c3cccs3)c2-c2nc3ccccc3s2)C1 [Compound 7, N-[3-(2-benzothiazolyl)-4,5,6,7-tetrahydro-6-methylthieno[2,3-c]pyridin-2-yl]-2-thiophenecarboxamide] |  | 32.7% | reduction of paw edema ([2]; 50 mg/kg dose, separate experiment (data not shown)): 18.5% |
| 65% | 1800 nM | COc1cccc(OCC(=O)Nc2sc3c(c2-c2nc4ccccc4s2)CCN(C)C3)c1 [Compound 4, N-[3-(2-benzothiazolyl)-4,5,6,7-tetrahydro-6-methylthieno[2,3-c]pyridin-2-yl]-2-(3-methoxyphenoxy)acetamide] | 22.8% | 33.5% | inhibition of ear swelling (in words) [3]: significantly inhibited ear swelling |
| 53% | 1700 nM | CC(C)N1CCc2c(sc(NC(=O)c3ccc(N(C)C)cc3)c2-c2nc3ccccc3s2)C1 [Compound 2, N-[3-(2-benzothiazolyl)-4,5,6,7-tetrahydro-6-(1-methylethyl)thieno[2,3-c]pyridin-2-yl]-4-(dimethylamino)benzamide] | 28.1% | 18.1% |  |
| 50% |  | CCN1CCc2c(sc(NC(=O)CCS(=O)(=O)c3ccccc3)c2-c2nc3ccccc3s2)C1 [Compound 38, N-[3-(2-benzothiazolyl)-4,5,6,7-tetrahydro-6-ethylthieno[2,3-c]pyridin-2-yl]-3-(phenylsulfonyl)propanamide] |  |  |  |
| 42% |  | Cc1ccc(S(=O)(=O)CC(=O)Nc2sc3c(c2-c2nc4ccccc4s2)CCN(C)C3)cc1 [Compound 39, N-[3-(2-benzothiazolyl)-4,5,6,7-tetrahydro-6-methylthieno[2,3-c]pyridin-2-yl]-(4-methylphenylsulfonyl)acetamide] |  |  |  |
| 72% | 1300 nM | CCN1CCc2c(sc(NC(=O)CCSc3ccccc3)c2-c2nc3ccccc3s2)C1 [Compound 29, N-[3-(2-benzothiazolyl)-4,5,6,7-tetrahydro-6-ethylthieno[2,3-c]pyridin-2-yl]-3-(phenylthio)propanamide] |  |  |  |
| 49% |  | CC(C)Oc1ccc(C(=O)Nc2sc3c(c2-c2nc4ccccc4s2)CCN(C)C3)cc1 [Compound 19, N-[3-(2-benzothiazolyl)-4,5,6,7-tetrahydro-6-methylthieno[2,3-c]pyridin-2-yl]-4-(1-methylethoxy)benzamide] |  |  |  |
| 29% |  | CN1CCc2c(sc(NC(=O)CN3C(=O)c4ccccc4C3=O)c2-c2nc3ccccc3s2)C1 [Compound 30, N-[3-(2-benzothiazolyl)-4,5,6,7-tetrahydro-6-methylthieno[2,3-c]pyridin-2-yl]-1,3-dihydro-1,3-dioxo-2H-isoindole-2-acetamide] |  |  |  |
| 39% |  | O=C(Nc1sc2c(c1-c1nc3ccccc3s1)CCN(Cc1ccccc1)C2)c1cc(Cl)sc1Cl [Compound 22, N-[3-(2-benzothiazolyl)-4,5,6,7-tetrahydro-6-phenylmethylthieno[2,3-c]pyridin-2-yl]-3-(2,5-dichloro)thiophenecarboxamide] |  |  |  |
| 81% | 140 nM | CN1CCc2c(sc(NC(=O)c3cc4ccccc4o3)c2-c2nc3ccccc3s2)C1 [Compound 5, N-[3-(2-benzothiazolyl)-4,5,6,7-tetrahydro-6-methylthieno[2,3-c]pyridin-2-yl]-benzo[b]furan-2-carboxamide] | 29.2% | 49.3% | inhibition of ear swelling (in words) ([3]; 50 mg/kg): significantly inhibited ear swelling; also recorded: Particularly strong response, comparable with the steroid dexamethasone |
| 70% | 500 nM | CCN1CCc2c(sc(NC(=O)c3ccccc3)c2-c2nc3ccccc3s2)C1 [Compound 9, N-[3-(2-benzothiazolyl)-4,5,6,7-tetrahydro-6-ethylthieno[2,3-c]pyridin-2-yl]-benzamide] |  |  |  |
| 35% |  | CCN1CCc2c(sc(NC(=O)c3cc4cc([N+](=O)[O-])ccc4s3)c2-c2nc3ccccc3s2)C1 [Compound 28, N-[3-(2-benzothiazolyl)-4,5,6,7-tetrahydro-6-ethylthieno[2,3-c]pyridin-2-yl]-benzo[b]thiophene-5-nitro-2-carboxamide] |  |  |  |
| 73% | 200 nM | CCN1CCc2c(sc(NC(=O)c3cc(OC)c(OC)c(OC)c3)c2-c2nc3ccccc3s2)C1 [Compound 14, N-[3-(2-benzothiazolyl)-4,5,6,7-tetrahydro-6-ethylthieno[2,3-c]pyridin-2-yl]-(3,4,5-trimethoxy)benzamide] |  |  |  |

Source: patent publication US20100298370A1, “BENZOTHIAZOLYL THIENOPYRIDINE DERIVATIVES AND USES THEREOF” (priority 2006, published 2010)
